Data on 15 compounds can be found in patent publication EP4818177A1, “TRICYCLIC DERIVATIVE INHIBITOR, AND PREPARATION METHOD AND USE THEREFOR” (Shanghai Hansoh Biomedical Co., Ltd., priority 2023, dated 2025).

The subject of series [1] is MTAP Knockout HCT116 cells. Briefly: Cell proliferation inhibition (CellTiter-Glo), MTAP knockout cells. The format is cell-based. The conditions noted are these: for Selectivity: HCT116 versus MTAP Knockout HCT116; for IC50: Homo sapiens, HCT-116, MTAP Knockout HCT116 cells, 72-240 hours incubation, CellTiter-Glo. The source says:
(§1) Test Example 2: Determination of the inhibitory effect of the compounds of the present invention on the proliferation activity of HCT116 and MTAP Knockout HCT116 cells.
(§2) 1. Experimental objective: to determine the inhibitory effect of the compound on the proliferation activity of HCT116 wild-type and HCT116 MTAP knockout cells. 2. Experimental instruments: Centrifuge (Eppendorf 5810R); microplate reader (BioTek Synergy H1 or PerkinElmer Envision); pipette (Eppendorf or Rainin). 3. Experimental reagents: HCT116 and MTAP Knockout HCT116 cells were purchased from Nanjing Cobioer; Cell Titer-Glo was purchased from Promega (Cat. No. G7573); McCoy' 5A was purchased from Gibco (Cat. No. 12330031); FBS was purchased from Gibco (Cat. No. 10091148); PBS was purchased from Gibco (Cat. No. 10010023); trypsin was purchased from Gibco (Cat. No. 25200056); cell culture plates were purchased from Corning (Cat. No. 3610). 4. Experimental methods: HCT116 and MTAP Knockout HCT116 cells were cultured in McCoy'5A medium containing 10% FBS until an appropriate cell density was reached. The cells were then collected and adjusted to a suitable concentration using complete medium. The cell suspension was seeded into a 96-well plate at 90 µL per well and allowed to adhere overnight in a 37°C, 5% CO2 incubator. Compound solutions of various concentrations were prepared using DMSO and culture medium, with a vehicle control set. The compound solutions were added to the 96-well plate at 10 µL per well, and the plate was incubated in a 37°C, 5% CO2 incubator for an additional 72-240 hours. After incubation, CellTiter-Glo solution was added, and the mixture was mixed uniformly by shaking, followed by incubation in the dark for 10 to 30 minutes. Luminescence was measured using a Synergy H1 or Envision microplate reader. 5. Experimental data processing method: The inhibition rate was calculated using the luminescence signal values, and the concentrations along with the inhibition rates were subjected to non-linear regression curve fitting using Graphpad Prism software to obtain the IC50 values.
On the technique in general: In ATP-based viability assays light output follows the ATP content of the culture.

The next series deals with HCT116 wild-type cells. Briefly: Cell proliferation inhibition (CellTiter-Glo), wild-type cells. It is filed as cell-based. The conditions noted are these: Homo sapiens, HCT-116, HCT116 wild-type cells, 72-240 hours incubation.
Text: as §1, §2

Series [2] addresses T1, PRMT5/MEP50-MTA protein complex (Homo sapiens, UniProt O14744).
T1 construct: purchased Viva Biotech
Briefly: Thermal shift assay: change in melting temperature of the PRMT5/MEP50-MTA protein complex. The format is binding. The conditions noted are these: compound 8 µM, PRMT5/MEP50 2 µM, MTA 2 µM; Tm minus DMSO vehicle control. The source says:
Test Example 1: Determination of the ability of the compounds of the present invention to improve the thermal stability (melting temperature) of the PRMT5/MEP50-MTA protein complex.
1. Experimental objective: The objective of this test example is to determine the ability of the compound to improve the thermal stability of the PRMT5/MEP50-MTA protein complex, resulting in an increase in the protein melting temperature. 2. Experimental instruments: Quantitative PCR instrument (Quantstudio6 Flex) was purchased from Life Technologies; pipettes were purchased from Eppendorf or Rainin. 3. Experimental reagents and consumables: PRMT5/MEP50 protein was prepared by Viva Biotech; HEPES was purchased from Thermo Fisher Scientific (Cat. No. 15630080); DTT was purchased from Sigma (Cat. No. 43816-10ml); sodium chloride was purchased from Invitrogen (Cat. No. AM9760G); Protein Thermal Shift™ Dye Kit was purchased from Thermo Fisher Scientific (Cat. No. 4461146); methylthioadenosine (MTA) was purchased from Sigma (Cat. No. D5011). 4. Experimental methods: In this experiment, the thermal shift method was used to measure the change in the melting temperature (Tm) of the PRMT5/MEP50-MTA protein complex before and after compound binding, thereby characterising the ability of the compound to improve the thermal stability of the PRMT5/MEP50-MTA protein complex. A solution containing 50 mM HEPES, 10 mM DTT, 2 µM MTA, SYPRO Orange and 250 mM NaCl was prepared as the experimental buffer. Human PRMT5/MEP50 protein was added to a final concentration of 2 µM, and the mixture was incubated at room temperature for 30 minutes. The above reaction mixture was aliquoted into 8-strip PCR tubes at 19.5 µL per tube. Then 0.5 µL of test compound or DMSO was added to each tube, providing a total reaction volume of 20 µL and a final compound concentration of 8 µM. 2.5% DMSO was set as the vehicle control. After incubation at room temperature for 10 minutes, the PCR tubes were placed in a PCR instrument, and the melt curve function was selected to measure the melting temperature of the PRMT5/MEP50-MTA protein complex in different treatment groups (heated from 25°C to 95°C, 0.03°C/s). 5. Experimental data processing method: The experimental data files from the PCR instrument were imported into the thermal shift software to obtain the melting temperature (Tm) for each treatment group.

Series [3] can be described thus: Pharmacokinetics in rats (plasma) after oral administration. The conditions noted are these: male, SD, rat, 5 mg/kg.

T1 sequence (O14744 whole entry): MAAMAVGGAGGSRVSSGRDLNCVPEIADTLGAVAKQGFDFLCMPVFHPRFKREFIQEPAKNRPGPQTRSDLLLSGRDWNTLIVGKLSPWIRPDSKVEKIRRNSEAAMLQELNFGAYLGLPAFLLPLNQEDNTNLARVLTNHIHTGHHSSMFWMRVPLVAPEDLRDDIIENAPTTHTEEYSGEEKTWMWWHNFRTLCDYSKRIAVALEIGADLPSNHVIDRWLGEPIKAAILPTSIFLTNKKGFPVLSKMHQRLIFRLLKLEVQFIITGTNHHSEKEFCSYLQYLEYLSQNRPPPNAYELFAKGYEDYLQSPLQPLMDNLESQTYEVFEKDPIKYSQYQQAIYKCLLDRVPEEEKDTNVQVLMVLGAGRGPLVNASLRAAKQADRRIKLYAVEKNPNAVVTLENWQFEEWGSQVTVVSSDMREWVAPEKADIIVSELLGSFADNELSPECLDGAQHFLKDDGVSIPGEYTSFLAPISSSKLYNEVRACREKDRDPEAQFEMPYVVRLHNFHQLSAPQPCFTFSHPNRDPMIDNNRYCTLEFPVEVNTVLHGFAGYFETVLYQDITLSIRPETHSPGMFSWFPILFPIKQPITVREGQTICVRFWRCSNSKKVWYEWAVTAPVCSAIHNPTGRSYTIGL
T1 sequence (Q9BQA1 whole entry partner): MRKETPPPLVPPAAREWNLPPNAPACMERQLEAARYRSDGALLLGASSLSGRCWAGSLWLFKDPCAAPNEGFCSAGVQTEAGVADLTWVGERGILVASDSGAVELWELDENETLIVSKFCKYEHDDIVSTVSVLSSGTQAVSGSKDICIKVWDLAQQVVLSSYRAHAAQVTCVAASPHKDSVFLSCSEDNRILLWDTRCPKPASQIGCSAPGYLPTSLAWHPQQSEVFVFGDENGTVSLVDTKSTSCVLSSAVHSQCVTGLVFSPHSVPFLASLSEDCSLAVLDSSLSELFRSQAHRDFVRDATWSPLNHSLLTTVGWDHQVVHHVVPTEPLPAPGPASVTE

Broadly, the IC50 is the concentration that gives 50% inhibition. For orientation: ΔTm means the change in melting temperature against a reference sample. As for `CNN(C(=O)c1ccc2nc(N)c3cnn(C)c3c2c1)C1COCc2nc(C(F)(F)F)ccc21` (racemic) [Example 301, 4-Amino-N',1-dimethyl-N-[2-(trifluoromethyl)-6,8-dihydro-5H-pyrano[3,4-b]pyridin-5-yl]pyrazolo[4,3-c]quinoline-8-hydrazide], the Selectivity in series [1] turned out to be 94. In addition, the IC50 in series [1] was found to be 14 nM; in the series with HCT116 wild-type cells, 1360 nM. In series [2], the ΔTm at 8 µM was determined as 11.6 °C.
For `CN(C(=O)c1ccc2nc(N)c3cnn(C)c3c2c1)C1COCc2c1ccn1cc(Br)nc21` (stereo not drawn) [Example 37, 4-Amino-N-(2-bromo-7,10-dihydro-8H-imidazo[1,2-a]pyrano[3,4-c]pyridin-7-yl)-N,1-dimethyl-1H-pyrazolo [4,3-c] quinoline-8-carboxamide] the same measures were 166, 9.2 nM, 1520 nM and 11.3 °C.
For the compound `Cc1cc2nc(N)c3cncn3c2cc1C(=O)N(C)[C@@H]1COCc2c1ccn1cc(C(F)(F)F)nc21` [Example 39-P1, (S)-4-amino-N,7-dimethyl-N-(2-(trifluoromethyl)-7,10-dihydro-8H-imidazo[1,2-a]pyrano[3,4-c]pyridin-7-yl)imidazo[1,5-a]quinoxaline-8-carboxamide], the Selectivity in series [1] stood at 108. Moreover, the IC50 in series [1] stood at 13 nM; in the series on HCT116 wild-type cells, 1390 nM. In addition, the ΔTm at 8 µM in series [2] stood at 12.4 °C.
By AUC(0-inf) is commonly meant the area under the concentration-time curve extrapolated to infinity. The Cmax is the peak of the concentration-time curve. As a reminder, the MRT inf is the average time that molecules of a dose stay in the body. For orientation: Tmax means the time at which the peak concentration occurs. A word on the half-life: it is the time needed for the level to fall by half in the phase considered. For the compound `Cc1cc2nc(N)c3cncn3c2cc1C(=O)N(C)[C@@H]1COCc2c1ccn1c(C(F)(F)F)cnc21` [Example 62-P1, (S)-4-amino-N,7-dimethyl-N-(3-(trifluoromethyl)-7,10-dihydro-8H-imidazo[1,2-a]pyrano[3,4-c]pyridin-7-yl)imidazo[1,5-a]quinoxaline-8-carboxamide], in series [3], the AUC(0-inf) turned out to be 1360 ng·h/mL, the Cmax came to 441 ng/mL, the MRT inf is 4 h and the Tmax worked out at 0.5 h. This compound also gave a half-life in series [3] of 4.1 h. Moreover, the ΔTm at 8 µM in series [2] was found to be 12.5 °C.
As for `CNN(C(=O)c1cc2c(cc1F)nc(N)c1cncn12)C1COCc2nc(C(F)(F)F)ccc21` (stereo not drawn) [Example 279, 4-Amino-7-fluoro-N'-methyl-N-[2-(trifluoromethyl)-6,8-dihydro-5H-pyrano[3,4-b]pyridin-5-yl]imidazo[1,5-a]quinoxaline-8-hydrazide], in series [3], the AUC(0-inf) is 729 ng·h/mL, the concentration peaked (Cmax) at 233 ng/mL, the MRT inf is 2.1 h and the Tmax stood at 0.5 h. The half-life in series [3] was 1 h. For the same compound, in series [2], the ΔTm at 8 µM worked out at 12.2 °C.
Regarding `[2H]C([2H])([2H])NN(C(=O)c1cc2c3c(c(N)nc2cc1F)COC3)C1COCc2c1ccn1c(C(F)(F)F)cnc21` (stereo not drawn) [Example 351, 4-Amino-7-fluoro-N'-(trideuteriomethyl)-N-(3-trifluoromethyl-7,10-dihydro-8H-imidazo [1,2-a]pyrano [3,4-c]pyridin-7-yl)-1,3-dihydrofuro [3,4-c] quinoline-8-carbohydrazide], in series [3], the AUC(0-inf) turned out to be 9660 ng·h/mL, the peak level (Cmax) was 2330 ng/mL, the MRT inf amounted to 3.3 h and the Tmax came to 0.5 h. This compound also showed a half-life in series [3] of 2.3 h. In addition, the ΔTm at 8 µM in series [2] worked out at 12.6 °C.
As to `[2H]C([2H])([2H])NN(C(=O)c1cc2c3c(c(N)nc2cn1)C(C)OC3)C1COCc2c1ccn1c(C(F)(F)F)cnc21` (stereo not drawn) [Example 362, 4-Amino-3-methyl-N'-(trideuteriomethyl)-N-(3-trifluoromethyl-7,10-dihydro-8H-imidazo[1,2-a]pyrano[3,4-c]pyridin-7-yl)-1,3-dihydrofuro[3,4-c] naphthyridine-8-carbohydrazide], the ΔTm at 8 µM in series [2] came to 11.2 °C.
On the same count and under the same terms, the figure for `CNN(C(=O)c1cc2c3c(c(N)nc2cn1)COC3)C1COc2cc(S(F)(F)(F)(F)F)ccc21` [Example 372, rel-(R)-4-amino-N'-methyl-N-(6-(pentafluoro-6-sulphanyl)-2,3-dihydrobenzofuran-3-yl)-1,3-dihydrofuro[3,4-c][1,7]naphthyridine-8-carbohydrazide] is 11.2 °C; for `CNN(C(=O)c1cc2c(cn1)nc(N)c1cnn(C)c12)C1COc2cc(S(F)(F)(F)(F)F)ccc21` (stereo not drawn) [Example 375, 4-Amino-N',1-dimethyl-N-(6-(pentafluoro-6-sulphanyl)-2,3-dihydrobenzofuran-3-yl)-1H-pyrazolo[4,3-c][1,7]naphthyridine-8-carbohydrazide] it is 12.7 °C; for `CNN(C(=O)c1cc2c(cn1)nc(N)c1cncn12)C1COCc2nc(S(F)(F)(F)(F)F)ccc21` (stereo not drawn) [Example 387, 4-Amino-N'-methyl-N-(2-pentafluorosulphanyl-5,8-dihydro-6H-pyrano[3,4-b]pyridin-5-yl)imidazo[1,5-a]pyridone[3,4-e]pyrazoline-8-hydrazide] it is 12.6 °C.
In the case of `[2H]C([2H])([2H])NN(C(=O)c1ccc2nc(N)c3c(c2c1)COC3)C1COCc2c1ccn1c(C(F)(F)F)cnc21` (stereo not drawn) [Example 392, 4-Amino-N'-(trideuteriomethyl)-N-(3-trifluoromethyl-7,10-dihydro-8H-imidazo [1,2-a]pyrano [3,4-c]pyridin-7-yl)-1,3-dihydrofuro [3,4-c] quinoline-8-carbohydrazide], the thermal shift (ΔTm) at 8 µM in series [2] stood at 10.4 °C.
The same measure, in the same setting: in the case of `[2H]C([2H])([2H])NN(C(=O)c1cc2c3c(c(N)nc2cc1Cl)COC3)C1COCc2c1ccn1c(C(F)(F)F)cnc21` (stereo not drawn) [Example 394, 4-Amino-7-chloro-N'-(methyl-d3)-N-(3-(trifluoromethyl)-7,10-dihydro-8H-imidazo [1,2-a]pyrano [3,4-c]pyridin-7-yl)-1,3-dihydrofuro [3,4-c] quinoline-8-carbohydrazide] it was 13.2 °C; in that of `[2H]C([2H])([2H])NN(C(=O)c1cc2c(cc1Cl)nc(N)c1cnn(C)c12)C1COCc2c1ccn1c(C(F)(F)F)cnc21` (stereo not drawn) [Example 435, 4-Amino-7-chloro-1-methyl-N'-(methyl-d3)-N-(3-(trifluoromethyl)-7,10-dihydro-8H-imidazo[1,2-a]pyrano[3,4-c]pyridin-7-yl)-1H-pyrazolo[4,3-c] quinoline-8-carbohydrazide], 13.7 °C; in that of `[2H]C([2H])([2H])NN(C(=O)c1ccc2nc(N)c3cnn(C)c3c2c1)[C@@H]1COCc2c1ccn1c(C(F)(F)F)cnc21` [Example 436-P1], 11.9 °C.
As for `CNN(C(=O)c1cc2c3c(c(N)nc2cn1)N=NC3C)C1COCc2c1ccn1c(C(F)(F)F)cnc21` (stereo not drawn) [Example 444, 4-Amino-N',1-dimethyl-N-(3-(trifluoromethyl)-7,10-dihydro-8H-imidazo[1,2-a]pyrano[3,4-c]pyridin-7-yl)-1H-pyrazolo[3,4-c][1,7]naphthyridine-8-carbohydrazide], the ΔTm at 8 µM in series [2] came out at 12.7 °C.
